Results taken from patent publication US5641792A, “Benzoylguanidines substituted by heterocyclic N-oxide, process for their preparation and pharmaceutical compositions containing them” (priority 1994, dated 1997).
Counter-ions that a name gives are not always drawn. One block for each compound: values may come before it.

Columns and labels:
[1] = target: T1, Na^+ /H^+ exchanger of rabbit erythrocytes (Oryctolagus cuniculus, UniProt P23791); test: Inhibition of the Na^+ /H^+ Exchanger of Rabbit Erythrocytes (amiloride-sensitive Na^+ influx, flame photometry); assay type: cell-based, rabbit (White New Zealand); conditions: cholesterol-fed rabbits, pH 7.4, 37° C.
T1 construct: determine the Na^+ influx into the erythrocytes via Na^+ /H^+ exchange by flame photometry; endogenous in cells; host or cells: erythrocytes in blood from the ear arteries of cholesterol-fed White New Zealand rabbits (Ivanovas)
T1 sequence (P23791 whole entry): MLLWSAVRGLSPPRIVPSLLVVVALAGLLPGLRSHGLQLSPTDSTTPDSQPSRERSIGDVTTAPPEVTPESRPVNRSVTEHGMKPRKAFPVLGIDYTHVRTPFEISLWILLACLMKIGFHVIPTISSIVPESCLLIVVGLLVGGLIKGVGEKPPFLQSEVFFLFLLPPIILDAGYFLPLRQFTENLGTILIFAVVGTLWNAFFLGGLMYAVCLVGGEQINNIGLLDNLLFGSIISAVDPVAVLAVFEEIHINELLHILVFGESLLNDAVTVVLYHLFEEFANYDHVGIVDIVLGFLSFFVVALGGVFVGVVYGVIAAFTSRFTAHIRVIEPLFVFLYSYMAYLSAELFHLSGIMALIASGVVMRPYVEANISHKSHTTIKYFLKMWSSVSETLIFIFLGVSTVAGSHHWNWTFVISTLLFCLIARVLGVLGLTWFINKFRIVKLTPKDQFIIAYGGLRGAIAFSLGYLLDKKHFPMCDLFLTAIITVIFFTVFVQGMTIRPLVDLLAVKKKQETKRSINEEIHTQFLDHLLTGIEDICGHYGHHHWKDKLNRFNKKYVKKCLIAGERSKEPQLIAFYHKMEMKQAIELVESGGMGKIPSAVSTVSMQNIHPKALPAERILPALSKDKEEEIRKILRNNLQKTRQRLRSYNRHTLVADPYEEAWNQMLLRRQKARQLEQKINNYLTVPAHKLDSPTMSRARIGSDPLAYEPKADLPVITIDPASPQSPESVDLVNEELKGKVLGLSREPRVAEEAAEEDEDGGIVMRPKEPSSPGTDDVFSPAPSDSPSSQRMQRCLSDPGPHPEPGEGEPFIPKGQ
Description: Inhibition of the Na^+ /H^+ Exchanger of Rabbit Erythrocytes
White New Zealand rabbits (Ivanovas) were given a standard diet with 2% of cholesterol for six weeks in order to activate the Na^+ /H^+ exchange and in this way to be able to determine the Na^+ influx into the erythrocytes via Na^+ /H^+ exchange by flame photometry. The blood was removed from the ear arteries and rendered noncoagulable by 25 IU of potassium-heparin. A portion of each sample was used for duplicate determination of the hematocrit by centrifugation. Aliquots of in each case 100 μl were used for measurement of the starting Na^+ content of the erythrocytes.
To determine the amiloride-sensitive sodium influx, 100 μl of each blood sample were incubated in 5 ml portions each of a hyperosmolar salt/sucrose medium (mmol/l: 140 NaCl, 3 KCl, 150 sucrose, 0.1 ouabain, 20 tris-hydroxymethylaminomethane) at pH 7.4 and 37° C. The erythrocytes were then washed three times with ice-cold MgCl2 /ouabain solution (mmol/l: 112 MgCl2, 0.1 ouabain) and hemolyzed in 2.0 ml of distilled water. The intracellular sodium content was determined by flame photometry.
The Na^+ net influx was calculated from the difference between the starting sodium values and the sodium content of the erythrocytes after incubation. The sodium influx which can be inhibited by amiloride resulted from the difference between the sodium content of the erythrocytes after incubation with and without 3×10^-4 mol/l of amiloride. This procedure was also followed with compounds according to the invention.

[2] = cited from earlier work
rat hearts = conditions: isolated rat hearts, cited from earlier work

IC50 [1]: 300 nM
SMILES: Cc1ccc2cc(Oc3ccc(C(=O)N=C(N)N)cc3S(C)(=O)=O)ccc2[n+]1[O-] [Example 2, 4-(quinaldine N-oxide-6-yloxy)-3-methylsulfonyl-benzoylguanidine, hydrochloride]

IC50 [1]: 19 nM
SMILES: Cc1ccc2cc(Oc3ccc(C(=O)N=C(N)N)cc3C(F)(F)F)ccc2[n+]1[O-] [Example 3, 4-(quinaldine N-oxide-6-yloxy)-3-trifluoromethyl-benzoylguanidine, hydrochloride]

Further lines, the compound ahead of its results:

SMILES: NC(N)=NC(=O)c1ccc(Oc2ccc[n+]([O-])c2)c(C(F)(F)F)c1 [Example 1, 4-(pyridine N-oxide-3-yloxy)-3-trifluoromethyl-benzoylguanidine, hydrochloride]
IC50 [1]: 80 nM

SMILES: NC(N)=NC(=O)c1nc(Cl)c(N)nc1N [amiloride, Amiloride]
antiarrhythmic effect ([2]; Circulation 79, 1257-63 (1989)): only weak | accompanying action (side-effects) ([2]; accompanies the antiarrhythmic effect): antihypertensive and saluretic action | suppression of artificially induced ventricular fibrillation (rat hearts; Eur. Heart J. 9 (suppl. 1): 167 (1988)): suppressed completely

SMILES: CCN(c1nc(N)c(C(=O)NC(=N)N)nc1Cl)C(C)C [ethylisopropylamiloride]
potency relative to amiloride in this model (ventricular fibrillation) (rat hearts; compared with amiloride): even more potent than amiloride
